According to US8487137B2, “Photochemical crosslinkers for polymer coatings and substrate tie-layer” (Innovative Surface Technologies, LLC, priority 2005, dated 2013):

How the values were obtained:
[1] = Static contact angle with water on coated PVC coverslips (goniometer); type: physicochemical
Procedure: A coating solution was made up from the crude glycol linker product isolated in Example 3 (0.5 mg/ml glycol in isopropanol with 50 mg/ml polyvinylpyrrolidone (Kollidon K30, BASF, N.J.)). 100 μl of the coating solution was applied to PVC coverslips (Fisher Scientific, Pittsburgh, Pa.) and allowed to dry overnight. All pieces were illuminated for a set time in a uv crosslinker (UVP CL-1000, Upland, Calif., 254 nm light, 120,000 μJ/cm^2) from 0 to 10 minutes. Pieces were then rinsed for 30 minutes in deionized water with gentle agitation. The static contact angle with water was taken on a goniometer (MicroVu 400, Santa Ana, Calif.), three 3 μl drops of water were measured, three times apiece. Contact angles are shown below.
A coating solution of purified triazine crosslinker isolated in Example 1 was made by adding 44 mg of crosslinker to 1 ml of acetone, diluted with 19 ml of isopropanol, then adding 1000 mg of poly(vinylpyrrolidone) (PVP) (Kollidon K30, BASF, N.J.). The resulting solution was thoroughly mixed on an orbital shaker for four hours. 18 samples were prepared by adding 100, 200, or 500 μl of coating solution onto PVC Coverslips (Fisher Scientific, Pittsburgh, Pa.) (n=6 for each condition), then air drying. The sample pieces were illuminated for five minutes in a uv chamber (UVP CL-1000, Upland, Calif., 254 nm light, 120,000 μJ/cm^2), then rinsed for four hours in deionized water with gentle agitation. 4 pieces of each variable were then stained with Congo red dye to determine the presence of PVP. For each coating condition, two of the four stained pieces were then rubbed with a wet glove to determine durability of the coating to simple rubbing. The remaining two unstained sample pieces for each coating condition were then assessed for static contact angle by threefold measurement of three 3 μl drops of water on a goniometer (MicroVu 400, Santa Ana, Calif.).

[2] = Solubility of crosslinker in common solvents and water; type: physicochemical; details: chloroform, methylene chloride, acetone, ethyl acetate, isopropanol, etc.
Source text: The peaks at d 7.78 ppm (m, 12H), 7.46 ppm (m, 9H), 6.98 ppm (m, 6H) were the typical signals from 4-substituted benzophenone. The peak at d 4.35 ppm (m, 6H) was assigned to the protons of methylene connected to phenoxy group. The peak at d 4.13 ppm (m, 9H) was a combination of 6 protons of 3 methylene groups connected to nitrogen atom and 3 protons from 3 methine groups. The peak at d 3.00 ppm (s, 3H) corresponded to hydroxyl groups.
The peaks at 7.49˜7.79 ppm (m, 18H) were the typical signals from 4-substituted benzophenone. The peak at 4.66 ppm (s, 4H) was assigned to the protons of methylene connected to benzophenone group. The peak at 3.70 ppm (m, 16H) corresponded to ethylene groups.
The peaks at 7.26˜7.79 ppm (m, 18H) were the typical signals from 4-substituted benzophenone. The peak at 4.64 ppm (s, 4H) was assigned to the protons of methylene connected to benzophenone group. The peak at 3.66 ppm (m, 24H) corresponded to ethylene groups.

With `O=C(c1ccccc1)c1ccc(OCC(O)Cn2c(=O)n(CC(O)COc3ccc(C(=O)c4ccccc4)cc3)c(=O)n(CC(O)COc3ccc(C(=O)c4ccccc4)cc3)c2=O)cc1` (stereo not shown) [Example 1] the “Contact angle (rinse only)” value ([1]; triazine crosslinker/PVP K30, Coating 100 ml) was 35.3 ± 3.4, the “Contact angle (rinse only)” value ([1]; triazine crosslinker/PVP K30, Coating 200 ml) was 38.7 ± 2.6 and the “Contact angle (rinse only)” value ([1]; triazine crosslinker/PVP K30, Coating 500 ml) was 29.2 ± 2.2. For the same compound, the “solubility in most common solvents” value [2] was “soluble in most common solvents”.
